According to patent publication US20210163412A1, “NOVEL SULFONEUREA COMPOUNDS” (Inflazome Limited, priority 2018, published 2021):

What was measured:
NLRP3 [1] = target: T1, NLRP3 (Homo sapiens, UniProt Q96P20); assay: Human whole blood IL-1β release assay; format: cell-based; design: Human whole blood in Li-heparin tubes was obtained from healthy donors; from tissue; host or cells: human whole blood from healthy donors; conditions: LPS 1 μg/ml, nigericin, IL-1β in supernatant (AlphaLisa), read-out: HWB IC50
T1 sequence (Q96P20 whole entry): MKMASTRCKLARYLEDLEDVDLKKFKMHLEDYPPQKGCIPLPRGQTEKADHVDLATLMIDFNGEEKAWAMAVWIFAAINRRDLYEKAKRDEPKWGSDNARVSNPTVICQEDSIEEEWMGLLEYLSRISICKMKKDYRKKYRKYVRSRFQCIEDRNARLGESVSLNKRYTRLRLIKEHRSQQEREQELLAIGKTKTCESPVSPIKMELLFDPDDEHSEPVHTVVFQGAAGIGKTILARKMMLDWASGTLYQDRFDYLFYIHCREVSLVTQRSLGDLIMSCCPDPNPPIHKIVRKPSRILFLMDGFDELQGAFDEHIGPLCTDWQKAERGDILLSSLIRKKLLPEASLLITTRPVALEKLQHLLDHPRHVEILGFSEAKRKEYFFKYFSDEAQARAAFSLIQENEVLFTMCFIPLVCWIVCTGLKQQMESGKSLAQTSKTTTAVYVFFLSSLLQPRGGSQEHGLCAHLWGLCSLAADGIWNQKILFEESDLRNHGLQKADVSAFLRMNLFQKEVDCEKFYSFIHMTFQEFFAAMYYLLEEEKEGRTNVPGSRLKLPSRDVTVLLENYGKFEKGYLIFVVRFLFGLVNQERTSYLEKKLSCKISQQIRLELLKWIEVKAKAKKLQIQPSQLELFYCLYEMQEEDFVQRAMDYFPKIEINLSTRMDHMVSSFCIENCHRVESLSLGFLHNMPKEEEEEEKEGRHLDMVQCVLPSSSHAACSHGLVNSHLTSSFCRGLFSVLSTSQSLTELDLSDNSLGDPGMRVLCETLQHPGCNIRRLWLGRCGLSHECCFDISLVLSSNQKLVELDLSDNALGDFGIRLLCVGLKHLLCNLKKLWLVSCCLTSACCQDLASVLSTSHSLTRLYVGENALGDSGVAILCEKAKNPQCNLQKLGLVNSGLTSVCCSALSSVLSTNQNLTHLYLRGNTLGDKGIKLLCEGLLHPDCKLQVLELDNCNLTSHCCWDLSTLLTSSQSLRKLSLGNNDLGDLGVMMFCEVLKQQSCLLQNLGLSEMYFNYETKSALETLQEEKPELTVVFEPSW
Description: For systemic delivery, the ability to inhibit NLRP3 when the compounds are present within the bloodstream is of great importance. For this reason, the NLRP3 inhibitory activity of a number of compounds in human whole blood was investigated in accordance with the following protocol.
Human whole blood in Li-heparin tubes was obtained from healthy donors from a volunteer donor panel. • 1. […] Incubate for 3 hrs at 37° C., 5% CO2 • 4. Add 1 μl nigericin (Sigma #N7143) ([…]) to all wells • 5. Incubate for 1 hr at 37° C., 5% CO2 • 6. At the end of the incubation period, spin plates at 300×g for 5 mins to pellet cells and remove 20 μl of supernatant and add to 96-well v-bottom plates for IL-1β analysis (note: these plates containing the supernatants can be stored at −80° C. to be analysed at a later date) • 7. IL-1β was measured according to the manufacturer protocol (Perkin Elmer-AlphaLisa IL-1 Kit AL220F-5000) • 8. IC50 data is fitted to a non-linear regression equation (log inhibitor vs response-variable slope 4-parameters)

NLRP3 [2] = target: T1, NLRP3; assay: THP-1 cells pyroptosis assay; format: cell-based; design: Seed THP-1 cells (25,000 cells/well) containing 1.0 μg/ml LPS; host or cells: THP-1 cells; conditions: LPS 1 μg/ml, nigericin 5 μM, resazurin readout
Description: The cells were routinely passaged and grown to confluency (˜10^6 cells/ml). On the day of the experiment, THP-1 cells were harvested and resuspended into RPMI medium (without FBS). The cells were then counted and viability (>90%) checked by Trypan blue (Sigma #T8154). […] To this diluted cell solution was added LPS (Sigma #L4524) to give a 1 μg/ml Final Assay Concentration (FAC). 40 μl of the final preparation was aliquoted into each well of a 96-well plate. The plate thus prepared was used for compound screening.
The following method step-by-step assay was followed for compound screening. • 1. […] Incubate for 3 hrs at 37° C., 5% CO2 • 4. Add 5 μl nigericin (Sigma #N7143) (FAC 5 μM) to all wells • 5. Incubate for 1 hr at 37° C., 5% CO2 • 6. At the end of the incubation period, spin plates at 300×g for 3 mins and remove supernatant • 7. Then add 50 μl of resazurin (Sigma #R7017) (FAC 100 μM resazurin in RPMI medium without FBS) and incubate plates for a further 1-2 hrs at 37° C. and 5% CO2 • 8. […] IC50 data is fitted to a non-linear regression equation (log inhibitor vs response-variable slope 4-parameters)

Compound | IC50 (NLRP3 [1]) | IC50 (NLRP3 [2])
CO[C@H]1CC[C@@H](Oc2cc(-c3ccc4c(c3NC(=O)NS(C)(=O)=O)CCC4)ccn2)CC1 [Example 1, N-((5-(2-(((1s,4s)-4-Methoxycyclohexyl)oxy)pyridin-4-yl)-2,3-dihydro-1H-inden-4-yl)carbamoyl)methanesulfonamide] | 1000 to 2000 nM | ≤ 250 nM
CC(C)(CN1CCC1)n1ccc(S(=O)(=O)NC(=O)Nc2c(-c3ccnc(OC4CC4)c3)ccc3c2CCC3)n1 [Example 65] | 250 to 500 nM | ≤ 250 nM
CN(C)C1CCC(Oc2cc(-c3ccc4c(c3NC(=O)NS(C)(=O)=O)CCC4)ccn2)CC1 (stereo not drawn) [Example 29] | ≤ 250 nM | ≤ 250 nM
CC(C)n1ccc(S(=O)(=O)NC(=O)Nc2c(-c3ccnc(OC4CCN(C)CC4)c3)ccc3c2CCC3)n1 [Example 68, i-Isopropyl-N-((5-(2-((1-methylpiperidin-4-yl)oxy)pyridin-4-yl)-2,3-dihydro-1H-inden-4-yl)carbamoyl)-1H-pyrazole-3-sulfonamide] | 250 to 500 nM | ≤ 250 nM
CC(C)c1cc(F)cc(-c2ccnc(N(C)C)c2)c1NC(=O)NS(=O)(=O)c1ccn(C(C)C)n1 [comp ex 3, reference compound] | – | 2000 to 5000 nM
CC(C)n1ccc(S(=O)(=O)NC(=O)Nc2c(-c3ccnc(OC4CCN(C)C4)c3)ccc3c2CCC3)n1 (stereo not drawn) [Example 76] | – | 500 to 1000 nM
CC(C)n1ccc(S(=O)(=O)NC(=O)Nc2c(-c3ccnc(OC4CCOCC4)c3)ccc3c2CCC3)n1 [Example 73] | 500 to 1000 nM | ≤ 250 nM
CS(=O)(=O)NC(=O)Nc1c(-c2ccnc(O[C@H]3CC[C@@](C)(O)CC3)c2)ccc2c1CCC2 [Example 4] | 250 to 500 nM | ≤ 250 nM
CN(C)CC(C)(C)n1ccc(S(=O)(=O)NC(=O)Nc2c(-c3ccnc(OC4CC4)c3)ccc3c2CCC3)n1 [Example 66] | 250 to 500 nM | ≤ 250 nM
CN1CCC(Oc2cc(-c3cc(F)cc(-c4ccccc4)c3NC(=O)NS(C)(=O)=O)ccn2)CC1 [Example 42] | 1000 to 2000 nM | 1000 to 2000 nM
CS(=O)(=O)NC(=O)Nc1c(-c2ccnc(OC3CCOCC3)c2)ccc2c1CCC2 [Example 33] | 1000 to 2000 nM | 250 to 500 nM
CC1CC(Oc2cc(-c3ccc4c(c3NC(=O)NS(C)(=O)=O)CCC4)ccn2)CCO1 (stereo not drawn) [Example 8] | 1000 to 2000 nM | 250 to 500 nM
CO[C@H]1CC[C@@H](Oc2cc(-c3c(C)cc4c(c3NC(=O)NS(C)(=O)=O)CCC4)ccn2)CC1 [Example 55] | 500 to 1000 nM | ≤ 250 nM
CN(C)CC(C)(C)n1ccc(S(=O)(=O)NC(=O)Nc2c(-c3ccnc(OC4CC4)c3)ccc3c2CCO3)n1 [Example 64, N-((5-(2-Cyclopropoxypyridin-4-yl)-2,3-dihydrobenzofuran-4-yl)carbamoyl)-1-(1-(dimethylamino)-2-methylpropan-2-yl)-1H-pyrazole-3-sulfonamide] | 250 to 500 nM | ≤ 250 nM
CN1CCC(COc2cc(-c3ccc4c(c3NC(=O)NS(C)(=O)=O)CCC4)ccn2)CC1 [Example 27] | 500 to 1000 nM | 1000 to 2000 nM
Cc1cc2c(c(NC(=O)NS(C)(=O)=O)c1-c1ccnc(O[C@H]3CC[C@H](N(C)C)CC3)c1)CCC2 [Example 46] | ≤ 250 nM | ≤ 250 nM
O=C(Nc1c(-c2ccnc(OC3CC3)c2)ccc2c1CCO2)NS(=O)(=O)c1ccn(C2CC2)n1 [Example 71] | 500 to 1000 nM | ≤ 250 nM
CN1CCC(Oc2cc(-c3cc(F)cc(C4CCCC4)c3NC(=O)NS(C)(=O)=O)ccn2)CC1 [Example 41] | 1000 to 2000 nM | ≤ 250 nM
Cc1cc2c(c(NC(=O)NS(C)(=N)=O)c1-c1ccnc(OC3CCN(C)CC3)c1)CCC2 (stereo not drawn) [Example 80, N-((6-Methyl-5-(2-((1-methylpiperidin-4-yl)oxy)pyridin-4-yl)-2,3-dihydro-1H-inden-4-yl)carbamoyl)methanesulfonimidamide] | 500 to 1000 nM | ≤ 250 nM
CC(C)n1ccc(S(=O)(=O)NC(=O)Nc2c(-c3ccnc(OC4CCC4)c3)ccc3c2CCC3)n1 [Example 75] | 1000 to 2000 nM | ≤ 250 nM

Compound | IC50 (NLRP3 [1]) | IC50 (NLRP3 [2])
CC(C)n1ccc(S(=O)(=O)NC(=O)Nc2c(-c3ccnc(Oc4ccccc4)c3)ccc3c2CCC3)n1 [Example 77] | 5000 to 10000 nM | ≤ 250 nM
CC(C)n1ccc(S(=O)(=O)NC(=O)Nc2c(-c3ccnc(OC4CCCOC4)c3)ccc3c2CCC3)n1 (stereo not drawn) [Example 74] | 1000 to 2000 nM | ≤ 250 nM
CN1CCC(Oc2cc(-c3ccc4c(c3NC(=O)NS(C)(=O)=O)CCC4)ccn2)CC1 [Example 35] | ≤ 250 nM | ≤ 250 nM
Cc1cc2c(c(NC(=O)NS(C)(=O)=O)c1-c1ccnc(OCC3CCCN(C)C3)c1)CCC2 (stereo not drawn) [Example 47] | ≤ 250 nM | ≤ 250 nM
CN1CCC(Oc2cc(-c3cc(F)cc(C4CCCCC4)c3NC(=O)NS(C)(=O)=O)ccn2)CC1 [Example 39] | 1000 to 2000 nM | ≤ 250 nM
Cc1cc2c(c(NC(=O)NS(C)(=O)=O)c1-c1ccnc(OC3CCOC3)c1)CCC2 (stereo not drawn) [Example 53] | 250 to 500 nM | ≤ 250 nM
CO[C@H]1CC[C@H](Oc2cc(-c3c(C)cc4c(c3NC(=O)NS(C)(=O)=O)CCC4)ccn2)CC1 [Example 54] | 500 to 1000 nM | ≤ 250 nM
CC(C)n1ccc(S(=O)(=O)NC(=O)Nc2c(-c3ccnc(C4CC4)c3)ccc3c2CCC3)n1 [Example 69] | 500 to 1000 nM | ≤ 250 nM
COc1cc(-c2cc(F)cc(C(C)C)c2NC(=O)NS(=O)(=O)c2ccn(C(C)C)n2)cc(C)n1 [comp ex 2, reference compound] | – | 2000 to 5000 nM
Cc1cc2c(c(NC(=O)NS(=N)(=O)c3ccccc3)c1-c1ccnc(OC3CCN(C)CC3)c1)CCC2 (stereo not drawn) [Example 79, N-((6-Methyl-5-(2-((1-methylpiperidin-4-yl)oxy)pyridin-4-yl)-2,3-dihydro-1H-inden-4-yl)carbamoyl)benzenesulfonimidamide] | 1000 to 2000 nM | ≤ 250 nM
C=CCN1CCC(Oc2cc(-c3ccc4c(c3NC(=O)NS(=O)(=O)CC=C)CCC4)ccn2)CC1 [Example 59, N-((5-(2-((1-Allylpiperidin-4-yl)oxy)pyridin-4-yl)-2,3-dihydro-1H-inden-4-yl)carbamoyl)prop-2-ene-1-sulfonamide] | 1000 to 2000 nM | ≤ 250 nM
CC(C)c1cc(F)cc(-c2ccnc(OC3CCN(C)CC3)c2)c1NC(=O)NS(C)(=O)=O [Example 43] | ≤ 250 nM | 500 to 1000 nM
O=C(Nc1c(-c2ccnc(OC3CC3)c2)ccc2c1CCC2)NS(=O)(=O)c1ccn(C2CC2)n1 [Example 72] | 1000 to 2000 nM | ≤ 250 nM
Cc1c(-c2ccc3c(c2NC(=O)NS(C)(=O)=O)CCC3)ccnc1OC1CCN(C)CC1 [Example 15] | 250 to 500 nM | 250 to 500 nM
CS(=O)(=O)NC(=O)Nc1c(-c2ccnc(OC3CCN(C4CC4)CC3)c2)ccc2c1CCC2 [Example 22] | 2000 to 5000 nM | ≤ 250 nM
CC(C)n1ccc(S(=O)(=O)NC(=O)Nc2c(-c3ccnc(OC4CCOC4)c3)ccc3c2CCC3)n1 (stereo not drawn) [Example 70] | 500 to 1000 nM | ≤ 250 nM
O=C(Nc1c(-c2ccnc(OC3CC3)c2)ccc2c1CCO2)NS(=O)(=O)c1ccn(C2CCC2)n1 [Example 67] | 500 to 1000 nM | ≤ 250 nM
CN1CCC(Oc2cc(-c3ccc4c(c3NC(=O)N=S(N)(=O)c3ccccc3)CCC4)ccn2)CC1 (stereo not drawn) [Example 78, N′-((5-(2-((1-Methylpiperidin-4-yl)oxy)pyridin-4-yl)-2,3-dihydro-1H-inden-4-yl)carbamoyl)benzenesulfonimidamide] | 2000 to 5000 nM | ≤ 250 nM
CS(=O)(=O)NC(=O)Nc1c(-c2ccnc(OC3CCN(Cc4ccccc4)CC3)c2)ccc2c1CCC2 [Example 19] | 1000 to 2000 nM | ≤ 250 nM
